{
  "source": "ChEMBL document CHEMBL1132957",
  "about": "“Design of potent dicyclic (4-10/5-8) gonadotropin releasing hormone (GnRH) antagonists” (J Med Chem, 2000)",
  "key": {"[1]": {"molecular_target": "T1, Gonadotropin-releasing hormone receptor (Rattus norvegicus, UniProt P30969)", "T1 sequence (P30969 whole entry)": "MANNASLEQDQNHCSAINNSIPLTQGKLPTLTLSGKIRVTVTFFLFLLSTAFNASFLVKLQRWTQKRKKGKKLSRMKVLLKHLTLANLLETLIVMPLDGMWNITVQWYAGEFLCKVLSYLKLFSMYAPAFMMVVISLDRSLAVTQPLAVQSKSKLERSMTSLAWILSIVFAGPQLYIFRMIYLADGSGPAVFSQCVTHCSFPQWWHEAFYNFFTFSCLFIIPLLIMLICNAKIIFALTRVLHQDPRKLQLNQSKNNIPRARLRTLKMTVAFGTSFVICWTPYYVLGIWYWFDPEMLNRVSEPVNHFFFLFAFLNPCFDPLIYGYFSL", "test": "Competitive radioligand binding assay, in human HEK293 cells stably transfected with the rat Gonadotropin-releasing hormone receptor", "format": "cell-based"}, "Rattus norvegicus [2]": {"test_system": "Rattus norvegicus", "test": "Evaluated for the ovulation effects in the rat by administering the drug at the doses (5.0 ug); 0/6", "format": "functional, organism-based"}, "Rattus norvegicus [3]": {"test_system": "Rattus norvegicus", "test": "Evaluated for the ovulation effects in the rat by administering the drug at the doses (2.5 ug); 2/8"}, "Rattus norvegicus [4]": {"test_system": "Rattus norvegicus", "test": "Evaluated for the ovulation effects in the rat by administering the drug at the doses (500 ug); 3/8", "format": "functional, organism-based"}, "Rattus norvegicus [5]": {"test_system": "Rattus norvegicus", "test": "Evaluated for the ovulation effects in the rat by administering the drug at the doses (100 ug); 5/5", "format": "functional, organism-based"}, "Rattus norvegicus [6]": {"test_system": "Rattus norvegicus", "test": "Evaluated for the ovulation effects in the rat by administering the drug at the doses (10 ug); 4/9", "format": "functional, organism-based"}, "Rattus norvegicus [7]": {"test_system": "Rattus norvegicus", "test": "Evaluated for the ovulation effects in the rat by administering the drug at the doses (10 ug); 0/10", "format": "functional, organism-based"}, "Rattus norvegicus [8]": {"test_system": "Rattus norvegicus", "test": "Evaluated for the ovulation effects in the rat by administering the drug at the doses (5 ug); 3/20", "format": "functional, organism-based"}, "Rattus norvegicus [9]": {"test_system": "Rattus norvegicus", "test": "Evaluated for the ovulation effects in the rat by administering the drug at the doses (2.5 ug); 9/10", "format": "functional, organism-based"}, "Rattus norvegicus [10]": {"test_system": "Rattus norvegicus", "test": "Evaluated for the ovulation effects in the rat by administering the drug at the doses (2.5 ug); 3/3", "format": "functional, organism-based"}, "Rattus norvegicus [11]": {"test_system": "Rattus norvegicus", "test": "Evaluated for the ovulation effects in the rat by administering the drug at the doses (5 ug); 2/6", "format": "functional, organism-based"}, "Rattus norvegicus [12]": {"test_system": "Rattus norvegicus", "test": "Evaluated for the ovulation effects in the rat by administering the drug at the doses (5 ug); 1/8", "format": "functional, organism-based"}, "Rattus norvegicus [13]": {"test_system": "Rattus norvegicus", "test": "Evaluated for the ovulation effects in the rat by administering the drug at the doses (1.0 ug); 11/15", "format": "functional, organism-based"}, "Rattus norvegicus [14]": {"test_system": "Rattus norvegicus", "test": "Evaluated for the ovulation effects in the rat by administering the drug at the doses (2.5 ug); 3/10", "format": "functional, organism-based"}, "Rattus norvegicus [15]": {"test_system": "Rattus norvegicus", "test": "Evaluated for the ovulation effects in the rat by administering the drug at the doses (10 ug); 0/9", "format": "functional, organism-based"}},
  "note": "The source made the active and inactive calls. The rule behind the calls is not given here. Positions of bridges follow the written chain, without caps; N, C: chain ends. Non-standard residues stand in square brackets, D forms with d. Residues, ends and D or L forms follow the SMILES beside them. dPhe(4-Cl) = N[C@H](Cc1ccc(Cl)cc1)C(=O)O; dPhe(4-F) = N[C@H](Cc1ccc(F)cc1)C(=O)O; d2Nal = N[C@H](Cc1ccc2ccccc2c1)C(=O)O; Dap = NC[C@H](N)C(=O)O",
  "data": [
    {"smiles": "CC(=O)N[C@H](Cc1ccc2ccccc2c1)C(=O)N[C@H](Cc1ccc(Cl)cc1)C(=O)N[C@H](Cc1cccnc1)C(=O)N[C@H]1CC(=O)NC[C@@H](C(N)=O)NC(=O)[C@@H]2CCCN2C(=O)[C@@H]2CCNC(=O)[C@H](Cc3ccc(Cl)cc3)NC(=O)CC[C@H](NC1=O)C(=O)N[C@H](CCCN=C(N)N)C(=O)N[C@@H](CC(C)C)C(=O)N2", "values": [
      {"measurement": "Ki", "setting": "[1]", "result": 0.23, "unit": "nM"},
      {"measurement": "Activity", "setting": "Rattus norvegicus [2]", "result": "Active"},
      {"measurement": "Activity", "setting": "Rattus norvegicus [3]", "result": "Weak activity"}
    ]},
    {"smiles": "CC(=O)N[C@H](Cc1ccc2ccccc2c1)C(=O)N[C@H](Cc1ccc(Cl)cc1)C(=O)N[C@H](Cc1cccnc1)C(=O)N[C@H]1CC(=O)NC[C@@H](C(N)=O)NC(=O)[C@@H]2CCCN2C(=O)[C@@H]2CCNC(=O)[C@@H](Cc3ccccc3)NC(=O)CC[C@H](NC1=O)C(=O)N[C@H](CCCN=C(N)N)C(=O)N[C@@H](CC(C)C)C(=O)N2", "values": [
      {"measurement": "Ki", "setting": "[1]", "result": 120, "unit": "nM"},
      {"measurement": "Activity", "setting": "Rattus norvegicus [4]", "result": "Weak activity"},
      {"measurement": "Activity", "setting": "Rattus norvegicus [5]", "result": "inactive"}
    ]},
    {"smiles": "CC(=O)N[C@H](Cc1ccc2ccccc2c1)C(=O)N[C@H](Cc1ccc(F)cc1)C(=O)N[C@H](Cc1c[nH]c2ccccc12)C(=O)N[C@H]1CCC(=O)NC(C(N)=O)NC(=O)[C@@H]2CCCN2C(=O)[C@H](CCCNC(=N)N)NC(=O)[C@H](CC(C)C)NC(=O)[C@@H](CCCNC(=N)N)NC(=O)[C@H](Cc2ccc(O)cc2)NC1=O", "note": "(stereo partly drawn)", "values": [
      {"measurement": "Ki", "setting": "[1]; hek293", "result": 1.3, "unit": "nM"}
    ]},
    {"smiles": "CC(=O)N[C@H](Cc1ccc2ccccc2c1)C(=O)N[C@H](Cc1ccc(F)cc1)C(=O)N[C@H](Cc1c[nH]c2ccccc12)C(=O)N[C@H]1CC(=O)NC[C@@H](C(N)=O)NC(=O)[C@@H]2CCCN2C(=O)[C@H](CCCN=C(N)N)NC(=O)[C@H](CC(C)C)NC(=O)[C@@H](CCCN=C(N)N)NC(=O)[C@H](Cc2ccc(O)cc2)NC1=O", "note": "(Ac-[d2Nal][dPhe(4-F)][dW]DY[dR]LRP[Dap]-NH2; lactam 4-10)", "values": [
      {"measurement": "Ki", "setting": "[1]; hek293", "result": 0.36, "unit": "nM"}
    ]},
    {"smiles": "CC(=O)N[C@H](Cc1ccc2ccccc2c1)C(=O)N[C@H](Cc1ccc(Cl)cc1)C(=O)N[C@H](Cc1cccnc1)C(=O)N[C@H]1CC(=O)NC[C@@H](C(N)=O)NC(=O)[C@@H]2CCCN2C(=O)[C@@H]2CCNC(=O)CN(C)C(=O)CC[C@H](NC1=O)C(=O)N[C@H](CCCN=C(N)N)C(=O)N[C@@H](CC(C)C)C(=O)N2", "values": [
      {"measurement": "Ki", "setting": "[1]", "result": 0.2, "unit": "nM"},
      {"measurement": "Activity", "setting": "Rattus norvegicus [6]", "result": "Weak activity"}
    ]},
    {"smiles": "CC(=O)N[C@H](Cc1ccc2ccccc2c1)C(=O)N[C@H](Cc1ccc(Cl)cc1)C(=O)N[C@H](Cc1c[nH]c2ccccc12)C(=O)N[C@H]1CC(=O)NC[C@@H](C(N)=O)NC(=O)[C@@H]2CCCN2C(=O)[C@@H]2CCCCNC(=O)CC[C@H](NC1=O)C(=O)N[C@H](CCCN=C(N)N)C(=O)N[C@@H](CC(C)C)C(=O)N2", "note": "(Ac-[d2Nal][dPhe(4-Cl)][dW]DE[dR]LKP[Dap]-NH2; lactam 4-10, 5-8)", "values": [
      {"measurement": "Ki", "setting": "[1]", "result": 0.32, "unit": "nM"},
      {"measurement": "Activity", "setting": "Rattus norvegicus [7]", "result": "Active"},
      {"measurement": "Activity", "setting": "Rattus norvegicus [8]", "result": "Weak activity"},
      {"measurement": "Activity", "setting": "Rattus norvegicus [9]", "result": "inactive"}
    ]},
    {"smiles": "CC(=O)N[C@H](Cc1ccc2ccccc2c1)C(=O)N[C@H](Cc1ccc(Cl)cc1)C(=O)N[C@H](Cc1cccnc1)C(=O)N[C@H]1CC(=O)NC[C@@H](C(N)=O)NC(=O)[C@@H]2CCCN2C(=O)[C@@H]2CCCNC(=O)[C@H](Cc3ccccc3)NC(=O)C[C@H](NC1=O)C(=O)N[C@H](CCCN=C(N)N)C(=O)N[C@@H](CC(C)C)C(=O)N2", "values": [
      {"measurement": "Ki", "setting": "[1]", "result": 0.75, "unit": "nM"},
      {"measurement": "Activity", "setting": "Rattus norvegicus [10]", "result": "inactive"},
      {"measurement": "Activity", "setting": "Rattus norvegicus [11]", "result": "Weak activity"}
    ]},
    {"smiles": "CC[C@H](NC(C)=O)C(=O)N[C@@H](Cc1ccc(Cl)cc1)C(=O)N[C@@H](Cc1c[nH]c2ccccc12)C(=O)N[C@@H](CC(=O)O)C(=O)N[C@@H]1CCC(=O)NCCCC[C@@H](C(=O)N2CCC[C@@H]2C(=O)N[C@@H](C)C(N)=O)NC(=O)[C@H](CC(C)C)NC(=O)[C@@H](CCCNC(=N)N)NC1=O", "note": "(stereo in doubt; 13)", "values": [
      {"measurement": "Ki", "setting": "[1]; hek293", "result": 0.84, "unit": "nM"}
    ]},
    {"smiles": "CC(=O)N[C@H](Cc1ccc2ccccc2c1)C(=O)N[C@H](Cc1ccc(Cl)cc1)C(=O)N[C@H](Cc1cccnc1)C(=O)N[C@H]1CC(=O)NC[C@@H](C(N)=O)NC(=O)[C@@H]2CCCN2C(=O)[C@@H]2CCNC(=O)[C@H](Cc3ccccc3)NC(=O)CC[C@H](NC1=O)C(=O)N[C@H](CCCN=C(N)N)C(=O)N[C@@H](CC(C)C)C(=O)N2", "values": [
      {"measurement": "Ki", "setting": "[1]", "result": 0.23, "unit": "nM"},
      {"measurement": "Activity", "setting": "Rattus norvegicus [12]", "result": "Active"},
      {"measurement": "Activity", "setting": "Rattus norvegicus [13]", "result": "inactive"},
      {"measurement": "Activity", "setting": "Rattus norvegicus [14]", "result": "Weak activity"},
      {"measurement": "Activity", "setting": "Rattus norvegicus [15]", "result": "Active"}
    ]}
  ]
}
